PMC7221574 (Molecules, 2020)
Where “and” joins values, the source holds several entries; their conditions need not be identical. Equal entries are not always repeated. Where two headings read alike, the source gives them in different places.

Columns and labels:
BALB/3T3 = experiment: In vitro antiproliferative activity, SRB assay, normal fibroblasts BALB/3T3; format: cell-based, murine; settings: for IC50: normal murine embryonic fibroblasts, 72 h, SRB, mean ± SD
Procedure: (§1) The A549 cell line was purchased from the European Collection of Authenticated Cell Cultures (ECACC, Salisbury, UK). The MCF-7, LoVo and LoVo/DX cell lines was purchased from American Type Culture Collection (ATCC, Manassas, VA, USA). All the cell lines are maintained in the Institute of Immunology and Experimental Therapy (IIET), Wroclaw, Poland.
(§2) Human lung adenocarcinoma cell line was cultured in a mixture of OptiMEM and RPMI 1640 (1:1) medium (IIET, Wroclaw, Poland), supplemented with 5% fetal bovine serum HyClone (GE Healthcare, USA) and 2 mM L-glutamine (Sigma-Aldrich, Germany). Human breast adenocarcinoma cell line was cultured in a mixture of Eagle medium (IIET, Wroclaw, Poland), supplemented with 10% fetal bovine serum, 2 mM L-glutamine, 8 μg/mL insulin and 1% amino acids (Sigma-Aldrich, Germany). Human colon adenocarcinoma cell lines were cultured in a mixture of OptiMEM and RPMI 1640 (1:1) medium (IIET, Wroclaw, Poland), supplemented with 5% fetal bovine serum HyClone (GE Healthcare, USA), 2 mM L-glutamine, 1 mM sodium pyruvate (Sigma-Aldrich, Germany) and 10 μg/100 mL doxorubicin (Accord) for LoVo/DX. Murine embryonic fibroblast cells were cultured in Dulbecco medium (Gibco), supplemented with 10% fetal bovine serum (GE Healthcare, USA) and 2 mM L-glutamine (Sigma-Aldrich, Germany). All culture media contained antibiotics: 100 U/mL penicillin (Polfa-Tarchomin, Poland) and 0.1 mg/mL streptomycin (Sigma Aldrich, Germany). All cell lines were cultured during entire experiment in humid atmosphere at 37 °C and 5% CO2.
(§3) All cell lines were exposed to each tested agent at different concentrations in the range 100–0.001 μg/mL for 72 h. The cells were also exposed to the reference drug cisplatin (Teva Pharmaceuticals, Poland) and doxorubicin (Accord Healthcare Limited, UK). Additionally, all cell lines were exposed to DMSO (solvent used for tested compounds) (POCh, Poland) at concentrations corresponding to those present in dilutions of tested agents. After 72 h sulforhodamine B assay (SRB) was performed.
(§4) After 72 h of incubation with the tested compounds, the cells were fixed in situ by gently adding of 50 μL per well of cold 50% trichloroacetic acid TCA (POCh, Poland) and were incubated at room temperature for one hour. Then the wells were washed four times with water and air dried. Next, 50 μL of 0.1% solution of sulforhodamine B (Sigma-Aldrich, Germany) in 1% acetic acid (POCh, Poland) were added to each well and were incubated at room temperature for 0.5 h. After incubation time, unbound dye was removed by washing plates four times with 1% acetic acid, whereas the stain bound to cells was solubilized with 150 μL of 10 mM Tris base (Sigma-Aldrich, Germany). Absorbance of each solution was read from a Synergy H4 Hybrid Multi-Mode Microplate Reader (BioTek Instruments, USA) at the 540 nm wavelength.

A549 = experiment: In vitro antiproliferative activity, SRB assay, A549; format: cell-based, human; settings: for IC50: human lung adenocarcinoma, 72 h, SRB, mean ± SD; for selectivity index (SI) A549: SI = (IC50 BALB/3T3)/(IC50 A549)
Procedure: as §1, §2, §3, §4

MCF-7 = experiment: In vitro antiproliferative activity, SRB assay, MCF-7; format: cell-based, human; settings: for IC50: human breast adenocarcinoma, 72 h, SRB, mean ± SD; for selectivity index (SI) MCF-7: SI = (IC50 BALB/3T3)/(IC50 MCF-7)
Procedure: as §1, §2, §3, §4

LoVo = experiment: In vitro antiproliferative activity, SRB assay, LoVo; format: cell-based, human; settings: for IC50: human colon adenocarcinoma, 72 h, SRB, mean ± SD; for selectivity index (SI) LoVo: SI = (IC50 BALB/3T3)/(IC50 LoVo)
Procedure: as §1, §2, §3, §4

LoVo/DX = experiment: cells; format: cell-based, human; settings: for RI (resistance index): RI = (IC50 for LoVo/DX)/(IC50 for LoVo); for IC50: 72 h, read-out: IC50 LoVo/DX
Procedure: as §1, §2, §3, §4

SMILES | IC50 (BALB/3T3) [nM] | IC50 (A549) [nM] | IC50 (MCF-7) [nM] | IC50 (LoVo) [nM] | RI (resistance index) (LoVo/DX) | IC50 (LoVo/DX; doxorubicin-resistant colon adenocarcinoma subline, SRB, mean ± SD) [nM] | IC50 (BALB/3T3; Mus musculus, BALB/3T3) [nM] | IC50 (A549; Homo sapiens, A549, 72 h) [nM] | IC50 (MCF-7; Homo sapiens, MCF7, 72 h) [nM] | IC50 (LoVo; Homo sapiens, LoVo) [nM] | IC50 (LoVo/DX; Homo sapiens, LoVo/DX) [nM] | selectivity index (SI) LoVo (LoVo) | selectivity index (SI) A549 (A549) | selectivity index (SI) MCF-7 (MCF-7) | selectivity index (SI), cancer cell lines not named at the place (BALB/3T3; SI = (IC50 BALB/3T3)/(IC50 respective cancerous cell line), range over several lines) | times more potent than unmodified colchicine 1 (LoVo/DX; LoVo/DX line) | IC50 (LoVo/DX; Homo sapiens, LoVo/DX, doxorubicin-resistant colon adenocarcinoma subline, SRB, mean ± SD) [nM]
N.N.[Cl][Pt][Cl] [Cisplatin, reference compound] | 5665 ± 31.8 | 5740 ± 968 | 7140 ± 1220 | 7080 ± 1600 | 1.2 | 8340 ± 1120 | – | – | – | – | – | – | – | – | – | – | –
CNc1ccc2c(cc1=O)[C@@H](NC(C)=O)CCc1cc(OC)c(OC)c(OC)c1-2 [Compound 2, 10-methylamino-10-demethoxycolchicine] | – | – | – | – | 63.0 | – | 10.8 ± 1.3 | 10.8 ± 1.3 | 8.6 ± 1.3 | 4.3 ± 1.3 | 271 ± 99.9 | – | – | – | – | – | –
CNc1ccc2c(cc1=O)[C@@H](N)CCc1cc(OC)c(OC)c(OC)c1-2 [Compound 3, N-deacetyl-10-methylamino-10-demethoxycolchicine] | – | 16.9 ± 2.8 | 19.7 ± 1.7 | 14 ± 1.7 | 9.2 | – | 19.7 ± 7 | < 20 | < 20 | < 20 | 129 ± 11.8 | – | – | – | – | – | –
CCC(=O)NC1CCc2cc(OC)c(OC)c(OC)c2-c2ccc(NC)c(=O)cc21 (centres unmarked) [Compound 4] | – | – | – | – | 28.0 | – | 19.4 ± 4.1 | 14.6 ± 2.4 | 14.6 ± 1.5 | 9.7 ± 1.5 | 272 ± 104 | – | – | – | – | – | –
CCCC(=O)N[C@H]1CCc2cc(OC)c(OC)c(OC)c2-c2ccc(NC)c(=O)cc21 [Compound 5] | – | – | – | – | 20.2 | – | 16.4 ± 3.5 | 14.1 ± 2.4 | 14.1 ± 1.4 | 9.6 ± 0.5 | 195 ± 51.9 | – | – | – | – | – | –
CCCCC(=O)NC1CCc2cc(OC)c(OC)c(OC)c2-c2ccc(NC)c(=O)cc21 (centres unmarked) [Compound 6] | – | – | – | – | 15.0 | – | 13.6 ± 2.3 | 13.6 ± 1.4 | 15.9 ± 6.6 | 6.8 ± 3.9 | 102 ± 20.7 | – | – | – | – | – | –
CCCCCCCCCCCCCCCC(=O)N[C@H]1CCc2cc(OC)c(OC)c(OC)c2-c2ccc(NC)c(=O)cc21 [Compound 7] | – | – | – | – | 39.0 | – | 546 ± 104 | 614 ± 194 | 465 ± 187 | 62.4 ± 16.9 | 2440 ± 923 | over 6 | – | – | – | – | –
CNc1ccc2c(cc1=O)C(NC(=O)C(C)C)CCc1cc(OC)c(OC)c(OC)c1-2 (centres unmarked) [Compound 8] | – | – | – | – | 24.3 | – | 28.1 ± 10.8 | 11.7 ± 1.4 | 18.8 ± 9.9 | 7 ± 1.4 | 171 ± 41.3 | 1.5–4.0 | 1.5–4.0 | 1.5–4.0 | – | – | –
CNc1ccc2c(cc1=O)C(NC(=O)CCl)CCc1cc(OC)c(OC)c(OC)c1-2 (centres unmarked) [Compound 9] | – | – | – | – | 35.2 | – | 11.6 ± 2.3 | 11.6 ± 2.8 | 9.2 ± 1.4 | 1.8 ± 0.4 | 62.4 ± 6.7 | over 6 | – | – | – | – | –
CNc1ccc2c(cc1=O)[C@@H](NC(=O)C(Cl)Cl)CCc1cc(OC)c(OC)c(OC)c1-2 [Compound 10] | – | – | – | – | 25.8 | – | 10.7 ± 1.3 | 8.6 ± 1.3 | 8.6 ± 1.2 | 1.5 ± 0.5 | 38.5 ± 21.6 | over 6 | – | – | – | – | –
CNc1ccc2c(cc1=O)C(NC(=O)CCC(F)(F)F)CCc1cc(OC)c(OC)c(OC)c1-2 (centres unmarked) [Compound 11, 4,4,4-trifluorobutyric amide of 10-N-methylaminocolchicine] | – | 14.6 ± 2.1 | 12.7 ± 0.4 | 10.4 ± 1.3 | 27.8 | – | 81.3 ± 20.4 | 10.4 to 14.6 | 10.4 to 14.6 | 10.4 to 14.6 | 290 ± 165 | higher than 5 | higher than 5 | higher than 5 | 5.6–7.8 | – | –
CNc1ccc2c(cc1=O)[C@@H](NC(=O)c1ccccc1)CCc1cc(OC)c(OC)c(OC)c1-2 [Compound 12] | – | – | – | – | 11.8 | – | 13 ± 3.3 | 13 ± 1.3 | 13 ± 1.3 | 8.5 ± 0.4 | 99.9 ± 10 | – | – | – | – | – | –
CNc1ccc2c(cc1=O)[C@@H](NC(=O)c1ccccc1Cl)CCc1cc(OC)c(OC)c(OC)c1-2 [Compound 13] | – | – | – | – | 14.0 | – | 6.2 ± 1.6 | 6.3 ± 3.2 | 9.2 ± 0.8 | 0.7 ± 0.1 | 9.6 ± 3.3 | over 6 | – | – | – | approx. 170 times | –
CNc1ccc2c(cc1=O)[C@@H](NC(=O)c1cccc(F)c1)CCc1cc(OC)c(OC)c(OC)c1-2 [Compound 14] | – | – | – | – | 12.0 | – | 12.6 ± 2.1 | 10.7 ± 0.6 | 12.6 ± 1.3 | 8.6 ± 0.8 | 102 ± 24.9 | – | – | – | – | – | –
CNc1ccc2c(cc1=O)[C@@H](NC(=O)c1cccnc1)CCc1cc(OC)c(OC)c(OC)c1-2 [Compound 15] | – | – | – | – | 76.8 | – | 43.3 ± 29.7 | 36.8 ± 12.1 | 13 ± 2.2 | 10.8 ± 1.3 | 832 ± 293 | – | – | – | – | – | –
CNc1ccc2c(cc1=O)[C@@H](NC(=O)c1ccncc1)CCc1cc(OC)c(OC)c(OC)c1-2 [Compound 16] | – | – | – | – | 87.4 | – | 52 ± 29.3 | 17.3 ± 3.7 | 12.8 ± 0.9 | 10.8 ± 1.3 | 947 ± 260 | – | – | – | – | – | –
CNc1ccc2c(cc1=O)C(NS(N)(=O)=O)CCc1cc(OC)c(OC)c(OC)c1-2 (centres unmarked) [Compound 17] | – | – | – | – | 306.0 | – | 100 ± 24.1 | 56.6 ± 14.7 | 10.3 ± 3.9 | 21.1 ± 17.5 | 6470 ± 264 | – | – | ~10 and 9.8 | – | – | –
CNc1ccc2c(cc1=O)C(NS(=O)(=O)N(C)C)CCc1cc(OC)c(OC)c(OC)c1-2 (centres unmarked) [Compound 18] | – | 10.6 ± 0.6 | 15.5 ± 1.7 | 9.3 ± 1.1 | 57.8 | – | 14.2 ± 13.2 | 9.3 to 15.5 | 9.3 to 15.5 | 9.3 to 15.5 | 540 ± 107 | – | – | – | – | – | –
C=CS(=O)(=O)NC1CCc2cc(OC)c(OC)c(OC)c2-c2ccc(NC)c(=O)cc21 (centres unmarked) [Compound 19] | – | – | – | – | 36.7 | – | 8.3 ± 3.8 | 11.4 ± 1.7 | 13 ± 4.3 | 8.4 ± 0.7 | 307 ± 145 | – | – | – | – | – | –
CNc1ccc2c(cc1=O)C(NS(=O)(=O)CCN1CCOCC1)CCc1cc(OC)c(OC)c(OC)c1-2 (centres unmarked) [Compound 20] | – | – | – | – | 165.4 | – | 991 ± 280 | 800 ± 130 | 150 ± 25.3 | 268 ± 94 | 44400 ± 23900 | – | – | 6.6 | – | – | –
CNc1ccc2c(cc1=O)[C@@H](NS(=O)(=O)c1ccc(C(F)(F)F)cc1)CCc1cc(OC)c(OC)c(OC)c1-2 [Compound 21] | – | – | – | – | 83.3 | – | 87.6 ± 13.5 | 85.5 ± 5.4 | 134 ± 41.5 | 73.5 ± 15.7 | 6120 ± 825 | – | – | – | – | – | –
COc1cccc2c1C(=O)c1c(O)c3c(c(O)c1C2=O)C[C@@](O)(C(=O)CO)C[C@@H]3O[C@H]1C[C@H](N)[C@H](O)[C@H](C)O1 [Doxorubicin, reference compound] | – | – | – | – | 87.9 | – | 149 ± 127 | 142 ± 46 | 204 ± 47.8 | 99.4 ± 41 | – | – | – | – | – | – | 8730 ± 2540
